# In ChEMBL document CHEMBL3885861, “Open TG-GATES”:
# Organism: Rattus norvegicus
# Assay: Open TG-GATES - Regimen: Daily Repeat
# Format: toxicity, organism-based, Sprague-Dawley
# Parameters: regimen Daily Repeat, gender Male, age 6 weeks
# Conditions: in vivo, po, route gavage; for APTT / Bas / Eos / Fbg / Hb / Ht / Lym / MCHC / MCV / Mono / Neu / PT / Plat / RBC / Ret / WBC: tissue Blood; for KIDNEY_L / KIDNEY_R / KIDNEY_TOTAL: tissue Kidney; for LIVER: tissue Liver; for ALP / ALT / AST / CRE / DBIL / GLC / IP / K / LDH / Na / PL / RALB / TBIL / TC / TG / TP / gamma-GTP: tissue Plasma
# [1] = 0 mg/kg, 72 h, dose level Control, time 3 day
# [2] = 0 mg/kg, […], dose level Control, time 7 day
# [3] = 0 mg/kg, […], dose level Control, time 14 day
# [4] = 0 mg/kg, […], dose level Control, time 28 day
# [5] = 60 mg/kg, 72 h, dose level Low, time 3 day
# [6] = 60 mg/kg, […], dose level Low, time 7 day
# [7] = 60 mg/kg, […], dose level Low, time 14 day
# [8] = 60 mg/kg, […], dose level Low, time 28 day
smiles,measurement,setting,value
O=C1NC(=O)C(c2ccccc2)(c2ccccc2)N1 [PHENYTOIN],TERMINAL_BW,[1],217.7 g
same,APTT,[1],21.2 s
same,Bas,[1],0%
same,Eos,[1],0.8%
same,Fbg,[1],301.8 mg/dL
same,Hb,[1],13.3 g/dL
same,Ht,[1],39%
same,Lym,[1],81.2%
same,MCHC,[1],34.1%
same,MCV,[1],64.2 fL
same,Mono,[1],2.4%
same,Neu,[1],15.2%
same,PT,[1],16 s
same,Plat,[1],126.3 x10_4/uL
same,RBC,[1],608.6 x10_4/ul
same,Ret,[1],7.4%
same,WBC,[1],73.8 x10_2/uL
same,KIDNEY_L,[1],1 g
same,KIDNEY_R,[1],1 g
same,KIDNEY_TOTAL,[1],1.9 g
same,LIVER,[1],10.1 g
same,ALP,[1],1688.4 IU/L
same,ALT,[1],46.8 IU/L
same,AST,[1],71 IU/L
same,CRE,[1],0.1 mg/dL
same,DBIL,[1],0 mg/dL
same,GLC,[1],192.6 mg/dL
same,IP,[1],7.6 mg/dL
same,K,[1],4.1 meq/L
same,LDH,[1],178.6 IU/L
same,Na,[1],143 meq/L
same,PL,[1],141.6 mg/dL
same,RALB,[1],3.1 g/dL
same,TBIL,[1],0.018 mg/dL
same,TC,[1],73.4 mg/dL
same,TG,[1],84 mg/dL
same,TP,[1],5.7 g/dL
same,gamma-GTP,[1],1 IU/L
same,TERMINAL_BW,[2],247 g
same,TERMINAL_BW,[3],296.2 g
same,TERMINAL_BW,[4],378.5 g
same,APTT,[2],20.8 s
same,Bas,[2],0%
same,Eos,[2],0.4%
same,Fbg,[2],300.4 mg/dL
same,Hb,[2],13.4 g/dL
same,Ht,[2],39.2%
same,Lym,[2],82.2%
same,MCHC,[2],34.2%
same,MCV,[2],62.4 fL
same,Mono,[2],2.4%
same,Neu,[2],13.6%
same,PT,[2],16 s
same,Plat,[2],125.6 x10_4/uL
same,RBC,[2],628 x10_4/ul
same,Ret,[2],5.6%
same,WBC,[2],113.7 x10_2/uL
same,APTT,[3],21.7 s
same,Bas,[3],0%
same,Eos,[3],1%
same,Fbg,[3],290.6 mg/dL
same,Hb,[3],14.1 g/dL
same,Ht,[3],40.9%
same,Lym,[3],81.4%
same,MCHC,[3],34.4%
same,MCV,[3],59.2 fL
same,Mono,[3],2.2%
same,Neu,[3],14.8%
same,PT,[3],16.5 s
same,Plat,[3],124.2 x10_4/uL
same,RBC,[3],690 x10_4/ul
same,Ret,[3],4.6%
same,WBC,[3],135.4 x10_2/uL
same,APTT,[4],23.3 s
same,Bas,[4],0%
same,Eos,[4],1%
same,Fbg,[4],307.4 mg/dL
same,Hb,[4],15.3 g/dL
same,Ht,[4],42.8%
same,Lym,[4],83.4%
same,MCHC,[4],35.7%
same,MCV,[4],58.7 fL
same,Mono,[4],1.6%
same,Neu,[4],13.4%
same,PT,[4],15.8 s
same,Plat,[4],116.4 x10_4/uL
same,RBC,[4],728.8 x10_4/ul
same,Ret,[4],3.1%
same,WBC,[4],147.1 x10_2/uL
same,KIDNEY_L,[2],1 g
same,KIDNEY_R,[2],1 g
same,KIDNEY_TOTAL,[2],2.1 g
same,KIDNEY_L,[3],1.2 g
same,KIDNEY_R,[3],1.2 g
same,KIDNEY_TOTAL,[3],2.4 g
same,KIDNEY_L,[4],1.3 g
same,KIDNEY_R,[4],1.3 g
same,KIDNEY_TOTAL,[4],2.6 g
same,LIVER,[2],11.2 g
same,LIVER,[3],12.7 g
same,LIVER,[4],15.6 g
same,ALP,[2],1443 IU/L
same,ALT,[2],34.8 IU/L
same,AST,[2],65 IU/L
same,CRE,[2],0.2 mg/dL
same,DBIL,[2],0.004 mg/dL
same,GLC,[2],197.2 mg/dL
same,IP,[2],7.7 mg/dL
same,K,[2],4.6 meq/L
same,LDH,[2],197 IU/L
same,Na,[2],141.6 meq/L
same,PL,[2],140 mg/dL
same,RALB,[2],2.9 g/dL
same,TBIL,[2],0.024 mg/dL
same,TC,[2],67.4 mg/dL
same,TG,[2],131.4 mg/dL
same,TP,[2],5.6 g/dL
same,gamma-GTP,[2],0.8 IU/L
same,ALP,[3],1493.2 IU/L
same,ALT,[3],40 IU/L
same,AST,[3],63 IU/L
same,CRE,[3],0.2 mg/dL
same,DBIL,[3],0 mg/dL
same,GLC,[3],199.4 mg/dL
same,IP,[3],7.2 mg/dL
same,K,[3],4.3 meq/L
same,LDH,[3],136.4 IU/L
same,Na,[3],141.4 meq/L
same,PL,[3],147.4 mg/dL
same,RALB,[3],3 g/dL
same,TBIL,[3],0.012 mg/dL
same,TC,[3],68.4 mg/dL
same,TG,[3],154 mg/dL
same,TP,[3],5.6 g/dL
same,gamma-GTP,[3],1.8 IU/L
same,ALP,[4],1238 IU/L
same,ALT,[4],38.8 IU/L
same,AST,[4],61.8 IU/L
same,CRE,[4],0.3 mg/dL
same,DBIL,[4],0.004 mg/dL
same,GLC,[4],189.6 mg/dL
same,IP,[4],6.3 mg/dL
same,K,[4],3.9 meq/L
same,LDH,[4],151.4 IU/L
same,Na,[4],142.4 meq/L
same,PL,[4],139.6 mg/dL
same,RALB,[4],3 g/dL
same,TBIL,[4],0.022 mg/dL
same,TC,[4],67.8 mg/dL
same,TG,[4],143.4 mg/dL
same,TP,[4],6.1 g/dL
same,gamma-GTP,[4],1.2 IU/L
same,TERMINAL_BW,[5],222.2 g
same,APTT,[5],21.7 s
same,Bas,[5],0%
same,Eos,[5],0.6%
same,Fbg,[5],311.4 mg/dL
same,Hb,[5],13 g/dL
same,Ht,[5],38.1%
same,Lym,[5],81.6%
same,MCHC,[5],34.1%
same,MCV,[5],65.7 fL
same,Mono,[5],1.4%
same,Neu,[5],15.2%
same,PT,[5],15.7 s
same,Plat,[5],130.4 x10_4/uL
same,RBC,[5],581.8 x10_4/ul
same,Ret,[5],7.7%
same,WBC,[5],82.9 x10_2/uL
same,KIDNEY_L,[5],1 g
same,KIDNEY_R,[5],1 g
same,KIDNEY_TOTAL,[5],2 g
same,LIVER,[5],10.7 g
same,ALP,[5],1528 IU/L
same,ALT,[5],38 IU/L
same,AST,[5],65.8 IU/L
same,CRE,[5],0.1 mg/dL
same,DBIL,[5],0 mg/dL
same,GLC,[5],185.4 mg/dL
same,IP,[5],7.5 mg/dL
same,K,[5],4.3 meq/L
same,LDH,[5],213.4 IU/L
same,Na,[5],143 meq/L
same,PL,[5],156 mg/dL
same,RALB,[5],3.1 g/dL
same,TBIL,[5],0.01 mg/dL
same,TC,[5],81.4 mg/dL
same,TG,[5],104.2 mg/dL
same,TP,[5],5.8 g/dL
same,gamma-GTP,[5],1.4 IU/L
same,TERMINAL_BW,[6],250.5 g
same,TERMINAL_BW,[7],308.9 g
same,TERMINAL_BW,[8],366.2 g
same,APTT,[6],22.8 s
same,Bas,[6],0%
same,Eos,[6],1%
same,Fbg,[6],314.8 mg/dL
same,Hb,[6],13.7 g/dL
same,Ht,[6],40.7%
same,Lym,[6],80%
same,MCHC,[6],33.6%
same,MCV,[6],62.6 fL
same,Mono,[6],2.6%
same,Neu,[6],15.8%
same,PT,[6],15.6 s
same,Plat,[6],124.8 x10_4/uL
same,RBC,[6],650.8 x10_4/ul
same,Ret,[6],6.1%
same,WBC,[6],113.1 x10_2/uL
same,APTT,[7],22.6 s
same,Bas,[7],0%
same,Eos,[7],0.8%
same,Fbg,[7],277.4 mg/dL
same,Hb,[7],13.9 g/dL
same,Ht,[7],40.8%
same,Lym,[7],80.6%
same,MCHC,[7],34.2%
same,MCV,[7],60.8 fL
same,Mono,[7],2.2%
same,Neu,[7],15.6%
same,PT,[7],16.2 s
same,Plat,[7],104.4 x10_4/uL
same,RBC,[7],670.4 x10_4/ul
same,Ret,[7],5%
same,WBC,[7],136.7 x10_2/uL
same,APTT,[8],22.8 s
same,Bas,[8],0%
same,Eos,[8],0.8%
same,Fbg,[8],298.8 mg/dL
same,Hb,[8],15.5 g/dL
same,Ht,[8],43.8%
same,Lym,[8],86.8%
same,MCHC,[8],35.5%
same,MCV,[8],57.3 fL
same,Mono,[8],1.8%
same,Neu,[8],10%
same,PT,[8],16 s
same,Plat,[8],107 x10_4/uL
same,RBC,[8],764.6 x10_4/ul
same,Ret,[8],2.6%
same,WBC,[8],141.5 x10_2/uL
same,KIDNEY_L,[6],1.1 g
same,KIDNEY_R,[6],1.1 g
same,KIDNEY_TOTAL,[6],2.1 g
same,KIDNEY_L,[7],1.3 g
same,KIDNEY_R,[7],1.3 g
same,KIDNEY_TOTAL,[7],2.6 g
same,KIDNEY_L,[8],1.3 g
same,KIDNEY_R,[8],1.3 g
same,KIDNEY_TOTAL,[8],2.6 g
same,LIVER,[6],11.8 g
same,LIVER,[7],14.1 g
same,LIVER,[8],14.2 g
same,ALP,[6],1555.8 IU/L
same,ALT,[6],40.4 IU/L
same,AST,[6],64.8 IU/L
same,CRE,[6],0.2 mg/dL
same,DBIL,[6],0 mg/dL
same,GLC,[6],184.6 mg/dL
same,IP,[6],7 mg/dL
same,K,[6],4.4 meq/L
same,LDH,[6],169.2 IU/L
same,Na,[6],141.8 meq/L
same,PL,[6],148.2 mg/dL
same,RALB,[6],3 g/dL
same,TBIL,[6],0.034 mg/dL
same,TC,[6],73.6 mg/dL
same,TG,[6],108 mg/dL
same,TP,[6],5.6 g/dL
same,gamma-GTP,[6],1.2 IU/L
same,ALP,[7],1361 IU/L
same,ALT,[7],40.4 IU/L
same,AST,[7],63.2 IU/L
same,CRE,[7],0.2 mg/dL
same,DBIL,[7],0.008 mg/dL
same,GLC,[7],186.8 mg/dL
same,IP,[7],7.6 mg/dL
same,K,[7],4.2 meq/L
same,LDH,[7],176.6 IU/L
same,Na,[7],142.6 meq/L
same,PL,[7],152.4 mg/dL
same,RALB,[7],3.1 g/dL
same,TBIL,[7],0.012 mg/dL
same,TC,[7],74.2 mg/dL
same,TG,[7],129.6 mg/dL
same,TP,[7],5.5 g/dL
same,gamma-GTP,[7],1.2 IU/L
same,ALP,[8],1279.2 IU/L
same,ALT,[8],41 IU/L
same,AST,[8],64.4 IU/L
same,CRE,[8],0.2 mg/dL
same,DBIL,[8],0.004 mg/dL
same,GLC,[8],181.2 mg/dL
same,IP,[8],5.8 mg/dL
same,K,[8],3.9 meq/L
same,LDH,[8],231.2 IU/L
same,Na,[8],143.4 meq/L
same,PL,[8],131.6 mg/dL
same,RALB,[8],3.1 g/dL
same,TBIL,[8],0.028 mg/dL
same,TC,[8],66.6 mg/dL
same,TG,[8],107.4 mg/dL
same,TP,[8],6.1 g/dL
same,gamma-GTP,[8],1.4 IU/L
